Source: ChEMBL document CHEMBL3259787, “Discovery of two aminoglycoside antibiotics as inhibitors targeting the menin-mixed lineage leukaemia interface” (Bioorg Med Chem Lett, 2014)
Active and inactive are the calls of the source. The calls are words filed in the database; no cut-off is given here.

What was measured:
[1] = Inhibition of N-terminal FITC-labeled MBM1 interaction to menin (unknown origin) after 1 hr by fluorescence polarization assay; set-up: species or system Homo sapiens
Menin (Homo sapiens) [2] = biological target: T1, Menin (Homo sapiens) (UniProt O00255); assay: Binding affinity to menin (unknown origin) assessed as thermal stability at 50 uM by differential scanning fluorimetry (reference value: 40.46 degC)
T1 sequence (whole entry): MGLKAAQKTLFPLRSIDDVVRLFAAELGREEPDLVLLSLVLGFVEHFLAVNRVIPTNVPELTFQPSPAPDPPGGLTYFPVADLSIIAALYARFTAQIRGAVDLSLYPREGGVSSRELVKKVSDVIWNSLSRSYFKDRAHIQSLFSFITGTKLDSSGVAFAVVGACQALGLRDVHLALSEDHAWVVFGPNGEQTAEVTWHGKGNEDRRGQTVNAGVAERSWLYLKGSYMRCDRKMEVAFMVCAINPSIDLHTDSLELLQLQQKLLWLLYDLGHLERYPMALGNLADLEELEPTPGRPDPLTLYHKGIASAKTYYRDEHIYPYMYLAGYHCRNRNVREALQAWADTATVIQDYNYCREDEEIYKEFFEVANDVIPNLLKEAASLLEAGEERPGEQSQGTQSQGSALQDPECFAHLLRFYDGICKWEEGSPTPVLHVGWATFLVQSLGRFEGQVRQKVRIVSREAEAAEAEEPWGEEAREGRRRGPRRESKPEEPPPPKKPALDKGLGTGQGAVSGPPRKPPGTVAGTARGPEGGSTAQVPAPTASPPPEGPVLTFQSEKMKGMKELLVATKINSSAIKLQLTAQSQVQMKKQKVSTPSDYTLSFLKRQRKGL

Menin (Homo sapiens) [3] = biological target: T1, Menin (Homo sapiens); assay: Binding affinity to menin (unknown origin) assessed as thermal stability at 200 uM by differential scanning fluorimetry (reference value: 40.46 degC)
Menin (Homo sapiens) [4] = biological target: T1, Menin (Homo sapiens); assay: Binding affinity to menin (unknown origin) assessed as thermal stability at 400 uM by differential scanning fluorimetry (reference value: 40.46 degC)
Menin = biological target: T2, Menin (Homo sapiens, UniProt O00255); assay: (§1) Binding affinity to menin (unknown origin) by isothermal titration calorimetry analysis
T2 sequence (O00255 whole entry): T1 sequence (whole entry)

Menin (Homo sapiens) [5] = biological target: T1, Menin (Homo sapiens); assay: as §1

SMILES	Ki [1]	Tm (Menin (Homo sapiens) [2])	Tm (Menin (Homo sapiens) [3])	Tm (Menin (Homo sapiens) [4])	Kd (Menin)	Activity (Menin (Homo sapiens) [5])
NC[C@@H]1O[C@H](O[C@H]2[C@@H](O)[C@H](O[C@@H]3[C@@H](O)[C@H](N)C[C@H](N)[C@H]3O[C@H]3O[C@H](CN)[C@@H](O)[C@H](O)[C@H]3N)O[C@@H]2CO)[C@H](N)[C@@H](O)[C@@H]1O [FRAMYCETIN]	18.8 µM	42.5 °C	43.8 °C	45.2 °C	15.6 µM	
NC[C@H]1O[C@H](O[C@H]2[C@H](O)[C@@H](O[C@H]3O[C@H](CO)[C@@H](O)[C@H](N)[C@H]3O)[C@H](N)C[C@@H]2N)[C@H](N)C[C@@H]1O [TOBRAMYCIN]	59.9 µM	41.4 °C	42.6 °C	43.4 °C		inactive
